Target: CDK2/Cyclin E1 (Homo sapiens (Human), UniProt P24941)
Experiment: CDK2/Cyclin E1 HTRF enzyme activity assay
Format: biochemical
Details: 1 mM ATP
Protocol: Assays are conducted in white 384-well polystyrene plates in a final reaction volume of 8 μL. […] HTRF signals are read after 1 hour at room temperature on a PHERAstar FS plate reader (BMG Labtech). Data is analyzed with IDBS XLFit and GraphPad Prism 5.0 software using a three or four parameter dose response curve to determine IC50 for each compound.

Row | Structure (SMILES) | IC50 [nM]
1 | CN(C)CCS(=O)(=O)N1CCC(Nc2ncc(C(F)(F)F)c(-c3cnn(CC(C)(C)O)c3)n2)CC1 [Example 83, 1-(4-(2-((1-((2-(Dimethylamino)ethyl)sulfonyl)piperidin-4-yl)amino)-5-(trifluoromethyl)pyrimidin-4-yl)-1H-pyrazol-1-yl)-2-methylpropan-2-ol] | < 50
2 | Cn1cnc(S(=O)(=O)N2CCC(Nc3ncc(C#N)c(-c4cnn(CC(F)(F)F)c4)n3)CC2)c1 [Example 38, 2-((1-((1-Methyl-1H-imidazol-4-yl)sulfonyl)piperidin-4-yl)amino)-4-(1-(2,2,2-trifluoroethyl)-1H-pyrazol-4-yl)pyrimidine-5-carbonitrile] | < 50
3 | CS(=O)(=O)N1CCC(Nc2ncc(C#N)c(-c3cnn(-c4ccc(CN[C@H]5CC[C@@](C)(O)CC5)cc4Cl)c3)n2)CC1 [Example 173, 4-(1-(2-Chloro-4-((((1s,4s)-4-hydroxy-4-methylcyclohexyl)amino)methyl)phenyl)-1H-pyrazol-4-yl)-2-((1-(methylsulfonyl)piperidin-4-yl)amino)pyrimidine-5-carbonitrile] | < 50
4 | CN1CCN(Cc2ccc(-n3cc(-c4nc(NC5CCN(S(=O)(=O)c6cn(C)cn6)CC5)ncc4Cl)cn3)c(C#N)c2)CC1 [Example 244, 2-(4-(5-Chloro-2-((1-((1-methyl-1H-imidazol-4-yl)sulfonyl)piperidin-4-yl)amino)pyrimidin-4-yl)-1H-pyrazol-1-yl)-5-((4-methylpiperazin-1-yl)methyl)benzonitrile] | < 50
5 | COC(=O)N[C@H]1CC[C@@H](NCc2ccc(-n3cc(-c4nc(NC5CCN(S(C)(=O)=O)CC5)ncc4C#N)cn3)c(Cl)c2)C1 [Example 280, Methyl ((1S,3R)-3-((3-chloro-4-(4-(5-cyano-2-((1-(methylsulfonyl)piperidin-4-yl)amino)pyrimidin-4-yl)-1H-pyrazol-1-yl)benzyl)amino)cyclopentyl)carbamate] | < 50
6 | COC(=O)NC1CCCCC1NCc1ccc(-n2cc(-c3nc(NC4CCN(S(C)(=O)=O)CC4)ncc3C#N)cn2)c(Cl)c1 (stereo not shown) [Example 166, Methyl (2-((3-chloro-4-(4-(5-cyano-2-((1-(methylsulfonyl)piperidin-4-yl)amino)pyrimidin-4-yl)-1H-pyrazol-1-yl)benzyl)amino)cyclohexyl)carbamate] | < 50
7 | CCN1CCN(Cc2ccc(-n3cc(-c4nc(NC5CCN(S(=O)(=O)c6cn(C)cn6)CC5)ncc4C(F)(F)F)cn3)c(C)n2)CC1 [Example 253, 4-(1-(6-((4-Ethylpiperazin-1-yl)methyl)-2-methylpyridin-3-yl)-1H-pyrazol-4-yl)-N-(1-((1-methyl-1H-imidazol-4-yl)sulfonyl)piperidin-4-yl)-5-(trifluoromethyl)pyrimidin-2-amine] | < 50
8 | CN[C@H]1C[C@H](n2cc(-c3nc(NC4CCN(S(=O)(=O)c5ccccn5)CC4)ncc3C(F)(F)F)cn2)C1 [Example 50, 4-(1-((1r,3r)-3-(Methylamino)cyclobutyl)-1H-pyrazol-4-yl)-N-(1-(pyridin-2-ylsulfonyl)piperidin-4-yl)-5-(trifluoromethyl)pyrimidin-2-amine] | < 50
9 | CCNCc1ccc(-n2cc(-c3nc(NC4CCN(S(=O)(=O)c5cn(C)cn5)CC4)ncc3C#N)cn2)c(C)n1 [Example 127, 4-(1-(6-((Ethylamino)methyl)-2-methylpyridin-3-yl)-1H-pyrazol-4-yl)-2-((1-((1-methyl-1H-imidazol-4-yl)sulfonyl)piperidin-4-yl)amino)pyrimidine-5-carbonitrile] | < 50
10 | Cn1cnc(S(=O)(=O)N2CCC(Nc3ncc(C(F)(F)F)c(-c4cnn(-c5ccnc(N)c5Cl)c4)n3)CC2)c1 [Example 36, 4-(1-(2-Amino-3-chloropyridin-4-yl)-1H-pyrazol-4-yl)-N-(1-((1-methyl-1H-imidazol-4-yl)sulfonyl)piperidin-4-yl)-5-(trifluoromethyl)pyrimidin-2-amine] | < 50
11 | [2H]C([2H])([2H])NCc1ccc(-n2cc(-c3nc(N[C@H]4CCN(S(=O)(=O)c5cn(C)cn5)C[C@H]4C)ncc3C#N)cn2)c(Cl)c1 [Example 148, 4-(1-(2-Chloro-4-(((methyl-d3)amino)methyl)phenyl)-1H-pyrazol-4-yl)-2-(((3R,4S)-3-methyl-1-((1-methyl-1H-imidazol-4-yl)sulfonyl)piperidin-4-yl)amino)pyrimidine-5-carbonitrile] | < 50
12 | CCN(CC)CCCS(=O)(=O)N1CC[C@H](Nc2ncc(C(F)(F)F)c(-c3cnn(CC(C)(C)O)c3)n2)[C@H](F)C1 [Example 202, 1-(4-(2-(((3R,4S)-1-((3-(Diethylamino)propyl)sulfonyl)-3-fluoropiperidin-4-yl)amino)-5-(trifluoromethyl)pyrimidin-4-yl)-1H-pyrazol-1-yl)-2-methylpropan-2-ol] | < 50
13 | CC(C)(O)Cn1cc(-c2nc(NC3CCN(S(=O)(=O)CCCN4CC[C@@](C)(O)C4)CC3)ncc2C(F)(F)F)cn1 [Example 223, (R)-1-(3-((4-((4-(1-(2-Hydroxy-2-methylpropyl)-1H-pyrazol-4-yl)-5-(trifluoromethyl)pyrimidin-2-yl)amino)piperidin-1-yl)sulfonyl)propyl)-3-methylpyrrolidin-3-ol] | < 50
14 | C[C@@H]1CN(S(=O)(=O)C2CC2)CC[C@@H]1Nc1ncc(C(F)(F)F)c(-c2cnn([C@H]3C[C@@](C)(N)C3)c2)n1 [Example 47, 4-(1-((1s,3r)-3-Amino-3-methylcyclobutyl)-1H-pyrazol-4-yl)-N-((3R,4S)-1-(cyclopropylsulfonyl)-3-methylpiperidin-4-yl)-5-(trifluoromethyl)pyrimidin-2-amine] | < 50
15 | [2H]C([2H])([2H])NCc1ccc(-n2cc(-c3nc(NC4CCN(S(=O)(=O)C5CC5)CC4)ncc3Cl)cn2)c(Cl)c1 [Example 135, 5-Chloro-4-(1-(2-chloro-4-(((methyl-d3)amino)methyl)phenyl)-1H-pyrazol-4-yl)-N-(1-(cyclopropylsulfonyl)piperidin-4-yl)pyrimidin-2-amine] | < 50
16 | Cc1nc(CNC(C)(C)C)ccc1-n1cc(-c2nc(NC3CCN(S(=O)(=O)c4cn(C)cn4)CC3)ncc2C#N)cn1 [Example 152, 4-(1-(6-((tert-Butylamino)methyl)-2-methylpyridin-3-yl)-1H-pyrazol-4-yl)-2-((1-((1-methyl-1H-imidazol-4-yl)sulfonyl)piperidin-4-yl)amino)pyrimidine-5-carbonitrile] | < 50
17 | [2H]C([2H])([2H])NCc1ccc(-n2cc(-c3nc(N[C@H]4CCN(S(=O)(=O)C5CC5)C[C@H]4C)ncc3C#N)cn2)c(Cl)c1 [Example 146, 4-(1-(2-Chloro-4-(((methyl-d3)amino)methyl)phenyl)-1H-pyrazol-4-yl)-2-(((3R,4S)-1-(cyclopropylsulfonyl)-3-methylpiperidin-4-yl)amino)pyrimidine-5-carbonitrile] | < 50
18 | C[C@@H]1CN(S(=O)(=O)C2CC2)CC[C@@H]1Nc1ncc(C(F)(F)F)c(-c2cnn(CC(C)(C)O)c2)n1 [Example 59, 1-(4-(2-(((3R,4S)-1-(Cyclopropylsulfonyl)-3-methylpiperidin-4-yl)amino)-5-(trifluoromethyl)pyrimidin-4-yl)-1H-pyrazol-1-yl)-2-methylpropan-2-ol] | < 50
19 | O=S(=O)(c1cn[nH]c1)N1CCC(Nc2ncc(C(F)(F)F)c(-c3cnn(CC(F)(F)F)c3)n2)CC1 [Example 2, N-(1-((1H-Pyrazol-4-yl)sulfonyl)piperidin-4-yl)-4-(1-(2,2,2-trifluoroethyl)-1H-pyrazol-4-yl)-5-(trifluoromethyl)pyrimidin-2-amine] | < 50
20 | C[C@H]1C[C@H](Nc2ncc(C(F)(F)F)c(-c3cnn(C4CCOCC4)c3)n2)CCN1S(C)(=O)=O (racemic) [Example 21, (±)-N-((2S,4R)-2-Methyl-1-(methylsulfonyl)piperidin-4-yl)-4-(1-(tetrahydro-2H-pyran-4-yl)-1H-pyrazol-4-yl)-5-(trifluoromethyl)pyrimidin-2-amine] | < 50
21 | CC(C)(O)Cn1cc(-c2nc(NC3CCN(S(=O)(=O)CCCCN4CCCC4)CC3)ncc2C(F)(F)F)cn1 [Example 80, 2-Methyl-1-(4-(2-((1-((4-(pyrrolidin-1-yl)butyl)sulfonyl)piperidin-4-yl)amino)-5-(trifluoromethyl)pyrimidin-4-yl)-1H-pyrazol-1-yl)propan-2-ol] | < 50
22 | CCN1CCN(Cc2ccc(-n3cc(-c4nc(NC5CCN(S(=O)(=O)c6cn(C)cn6)CC5)ncc4C(F)(F)F)cn3)c(C)c2)CC1 [Example 235, 4-(1-(4-((4-Ethylpiperazin-1-yl)methyl)-2-methylphenyl)-1H-pyrazol-4-yl)-N-(1-((1-methyl-1H-imidazol-4-yl)sulfonyl)piperidin-4-yl)-5-(trifluoromethyl)pyrimidin-2-amine] | < 50
23 | CC(C)(O)Cn1cc(-c2nc(NC3CCN(S(=O)(=O)CCN4CCCC4)CC3)ncc2C(F)(F)F)cn1 [Example 82, 2-Methyl-1-(4-(2-((1-((2-(pyrrolidin-1-yl)ethyl)sulfonyl)piperidin-4-yl)amino)-5-(trifluoromethyl)pyrimidin-4-yl)-1H-pyrazol-1-yl)propan-2-ol] | < 50
24 | Cc1nc(CN2CCN(C(C)C)CC2)ccc1-n1cc(-c2nc(NC3CCN(S(=O)(=O)c4cn(C)cn4)CC3)ncc2Cl)cn1 [Example 251, 5-Chloro-4-(1-(6-((4-isopropylpiperazin-1-yl)methyl)-2-methylpyridin-3-yl)-1H-pyrazol-4-yl)-N-(1-((1-methyl-1H-imidazol-4-yl)sulfonyl)piperidin-4-yl)pyrimidin-2-amine] | < 50
25 | CC(C)(O)Cn1cc(-c2nc(N[C@H]3CCN(S(=O)(=O)CCCN4CCCCC4)C[C@H]3F)ncc2C(F)(F)F)cn1 [Example 204, 1-(4-(2-(((3R,4S)-3-Fluoro-1-((3-(piperidin-1-yl)propyl)sulfonyl)piperidin-4-yl)amino)-5-(trifluoromethyl)pyrimidin-4-yl)-1H-pyrazol-1-yl)-2-methylpropan-2-ol] | < 50

From patent US11472791B2 (Incyte Corporation, priority 2019, dated 2022)
